Source: article PMC3176295 (Bioorganic & medicinal chemistry, 2011)

What was measured:
M. tuberculosis H37Rv = assay: MIC determination by microbroth dilution against M. tuberculosis; type: cell-based, Mycobacterium tuberculosis; conditions: for antitubercular activity / MIC in words: M. tuberculosis
EphB (Rv1938) = EphB (Rv1938) (Mycobacterium tuberculosis, UniProt I6YC03); type: biochemical; conditions: 10 nM
EphE (Rv3670) = EphE (Rv3670) (Mycobacterium tuberculosis, UniProt O69638); assay: EphE inhibition, fluorescent assay with Epoxy Fluor 7; type: biochemical, M. tuberculosis; conditions: for EphE activity in words: 10 nM; for % EphE Inhibition at 10 nM: inhibitor 10 nM, substrate 5 μM, duplicate; for inhibition at 0.01 µM: read-out: % EphE Inhibition at 10 nM, inhibitor 10 nM, substrate 5 μM, duplicate

EphB (Rv1938), sequence (I6YC03 whole entry): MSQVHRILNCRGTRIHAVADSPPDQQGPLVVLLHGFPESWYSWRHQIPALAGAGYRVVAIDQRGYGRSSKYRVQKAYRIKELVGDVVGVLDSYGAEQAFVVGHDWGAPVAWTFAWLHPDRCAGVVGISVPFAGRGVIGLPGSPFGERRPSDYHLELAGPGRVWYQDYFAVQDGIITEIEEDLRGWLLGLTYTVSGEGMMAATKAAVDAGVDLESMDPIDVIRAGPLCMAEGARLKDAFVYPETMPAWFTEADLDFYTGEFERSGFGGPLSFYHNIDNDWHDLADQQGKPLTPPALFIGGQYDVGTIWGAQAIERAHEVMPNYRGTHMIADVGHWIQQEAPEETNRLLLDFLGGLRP

Structure (SMILES) | EphB inhibition in words (EphB (Rv1938)) | antitubercular activity / MIC in words (M. tuberculosis H37Rv) | EphE activity in words (EphE (Rv3670)) | further results
Fc1ccc(NC(=S)NC2C3CC4CC(C3)CC2C4)c(F)c1F (stereo not shown) [Compound 31, 1-(2-Adamantyl)-3-(2,3,4-trifluorophenyl)thiourea] |  |  |  | fold decrease in MIC activity (M. tuberculosis H37Rv; thiourea versus urea 1): 80 fold
CCCCCCNC(=O)NC1C2CC3CC(C2)CC1C3 (stereo not shown) [Compound 20, 1-(2-Adamantyl)-3-hexylurea] | relatively poor EphB inhibition | good MIC values | good EphE activity | % EphE Inhibition at 10 nM (EphE (Rv3670)): > 70%
Cc1ccc(NC(=O)NC2CCCCCCC2)cc1Cl [Compound 24, 1-(3-Chloro-4-methylphenyl)-3-cyclooctylurea] |  |  |  | % EphE Inhibition at 10 nM (EphE (Rv3670)): > 70%
O=C(NCCc1ccccc1)NC1C2CC3CC(C2)CC1C3 (stereo not shown) [Compound 11, 1-(2-Adamantyl)-3-phenethylurea] | relatively poor EphB inhibition | good MIC values | good EphE activity | inhibition at 0.01 µM (EphE (Rv3670)): > 70%
CC(C)CCOc1ccc(NC(=O)Nc2ccc(OCCC(C)C)cc2)cc1 [Compound 41, 1,3-Bis(4-(isopentyloxy)phenyl)urea] |  | inactive |  | 
COC(=O)c1ccc(NC(=O)NC23CC4CC(CC(C4)C2)C3)cc1O [Compound 36, Methyl 4-(3-(1-adamantyl)ureido)-2-hydroxybenzoate] |  | good antitubercular activity |  | 
N#Cc1ccc(NC(=O)NC2C3CC4CC(C3)CC2C4)cc1 (stereo not shown) [Compound 10, 1-(2-Adamantyl)-3-(4-cyanophenyl)urea] | relatively poor EphB inhibition | good MIC values | good EphE activity | 
O=C(Nc1ccc(F)c(F)c1F)OC1C2CC3CC(C2)CC1C3 (stereo not shown) [Compound 32, 2-Adamantyl 2,3,4-trifluorophenylcarbamate] |  |  |  | additional fold decrease in anti-M. tuberculosis potency (M. tuberculosis H37Rv; carbamate, additional to the decrease of thiourea 31): 10 fold
O=C(Nc1ccc(F)c(F)c1F)NC1C2CC3CC(C2)CC1C3 (stereo not shown) [Compound 1, 1-(2-Adamantyl)-3-(2,3,4-trifluorophenyl)urea] |  |  |  | inhibition at 0.01 µM (EphE (Rv3670)): > 70%
COc1ccc(NC(=O)NC2C3CC4CC(C3)CC2C4)cc1 (stereo not shown) [Compound 35, 1-(2-Adamantyl)-3-(4-methoxyphenyl)urea] |  | good antitubercular activity |  | 
Cc1ccc(NC(=O)NCC23CC4CC(CC(C4)C2)C3)cc1Cl [Compound 22, 1-(1-(1-Adamantyl)methyl)-3-(3-chloro-4-methylphenyl)urea] | relatively poor EphB inhibition | good MIC values | good EphE activity | 
O=C(NCC12CC3CC(CC(C3)C1)C2)Nc1ccc(F)c(F)c1F [Compound 3, 1-(1-(1-Adamantyl)methyl)-3-(2,3,4-trifluorophenyl)urea] | relatively poor EphB inhibition | good MIC values | good EphE activity | % EphE Inhibition at 10 nM (EphE (Rv3670)): > 70%
